# Measured values published in patent US11229597B2, “Topical doxycycline composition” (HORUS PHARMA, priority 2017, dated 2022).
# Test: Stability tests of doxycycline (active principle content by HPLC over time)
# Type: physicochemical
# Conditions: for stability of doxycycline in glycerol solution as a function of time: 25° C. (FIG. 2)
# Experimental: The preparation in the form of an H/L emulsion containing the active principle and cyclodextrins in solution in the polyol is carried out according to the following method: • The liquid hydrophobic material/semi-solid hydrophobic material base (called phase A) is formulated by mixing in a water bath at 75° C. to make all components miscible. For the mass ratio of liquid hydrophobic material to semi-solid hydrophobic material 0/100, the semi-solid hydrophobic material is added directly to the mixer at 45° C. • The temperature of phase A is lowered to 45° C. and then phase A is transferred to the mixer whose temperature is 45° C. • The cyclodextrin is added to the polyol (called phase B) and magnetically stirred then the doxycyline hyclate is added to phase B and magnetically stirred until all components are completely dissolved, the temperature of the solution is increased to 45° C. • When phases A and B are at the same temperature, phase B is added to phase A under stirring to form an emulsion. • The emulsion is stirred for 30 minutes at 700 rpm at 45° C. and then the temperature of the entire mixture is reduced to 37° C. • The resulting emulsion is packaged and cooled to room temperature. In order to assay of the active principle in the formulation, the following extraction is carried out: • 1.0 g of the formula is diluted in 10.0 g of water and stirred with a suitable stirring system for 30 minutes at 45° C. • After filtration with a nylon filter at 0.45 μm, a dilution in the mobile phase is performed for a high-performance liquid chromatography assay. The active principle content is determined by the following high-performance liquid chromatography method: • Column: XTerra® RP 8 5 μm 4.6×250 mm • Mobile phase: • 65% water containing 0.13% oxalic acid • 22% acetonitrile • 13% methanol • Flow rate: 1.0 mL/min
# Stability tests are performed at temperatures of 25° C. and 40° C.: […]
"stability of doxycycline in aqueous solution as a function of time (0.1% aqueous solution, 25° C. and 40° C. (FIG. 1))",stability of doxycycline in glycerol solution as a function of time (0.1% doxycycline hyclate in glycerol with β-cyclodextrins),stability of doxycycline in glycerol solution as a function of time (0.1% doxycycline hyclate in glycerol without β-cyclodextrins),Compound
rapidly degraded,–,–,C[C@H]1c2cccc(O)c2C(=O)C2=C(O)[C@]3(O)C(=O)C(C(N)=O)=C(O)[C@@H](N(C)C)[C@@H]3[C@@H](O)[C@@H]21 [doxycycline]
–,no or little degradation,no or little degradation,doxycycline hyclate
